From patent publication US10336733B2, “Aryl acylsulfonamides as BLT1 antagonists” (Merck Sharp & Dohme Corp., priority 2015, dated 2019)

Target: human BLT1 receptor (Homo sapiens (Human), UniProt Q15722)
Assay: BLT-1 cAMP Assay
Assay type: cell-based
Conditions: antagonist mode; HEK293 cells recombinantly expressing human BLT1 receptor; forskolin 4 μM and LTB4 2 nM; cAMP detection
Description: The ability of compounds to antagonize the human BLT1 receptor was determined using a kit to measure changes in intracellular cyclic AMP levels (cAMP dynamic assay kit, Cisbio Cat. No. 62AM4PEC). HEK293 cells recombinantly expressing human BLT1 receptor, previously frozen in Recovery Medium (Life Technologies, Cat. No. 12648-010) were thawed and diluted into assay medium (HBSS (Hyclone SH 30268.01), 20 mM HEPES (Gibco 15630-106), 800 μM IBMX (Sigma I5879), 0.1% DTPA BSA (Perkin Elmer CR84-100)). The cell suspension was centrifuged at 200×g for 10 min and then resuspended in fresh assay medium to a density of 2.5×10^5 cells/mL. A Labcyte Echo 550 acoustic dispenser was used to transfer 25 nL of test compound dissolved in DMSO into the wells of a dry 384-well plate (Greiner 784075). All subsequent liquid additions were performed using a BIORAPTR (FRD; Beckman Coulter). Next, 5 μL of cell suspension was added and incubated for 20 min. at 37° C. and 5% CO2 in a humidified plastic tray. To test for agonist activity […] of assay buffer containing forskolin (Sigma F-6886. 4 μM for BLT1) was added and incubated for 30 minutes at 37° C. and 5% CO2 in a humidified plastic tray. To test for antagonist activity 5 μL of assay buffer containing forskolin (Sigma F-6886. 4 μM for BLT1) and either LTB4 (Sigma Aldrich L0517; 2 nM BLT1) was added and incubated for 30 minutes at 37° C. and 5% CO2 in a humidified plastic tray.
The levels of cAMP were detected using the CisBio kit following the manufacturer's instructions: cAMP-d2 vial was reconstituted with distilled water and then diluted accordingly with conjugate & lysis buffer. 5 μL of cAMP-d2 working solution was added to all of the wells of the assay plate. cAMP-Cryptate vial was reconstituted with distilled water and then diluted accordingly with conjugate & lysis buffer. 5 μL of cAMP-Cryptate working solution were added to the assay plate. The assay plate was shaken for 3 minutes and incubated at room temperature for 45 minutes, then read on Perkin Elmer Envision. cAMP standard curve and fit data were plotted using a 4 parameter dose response curve fitting algorithm to fit curve. A 4-parameter curve fit (Max, min, log EC50 and slope) was used to transform fluorescent 665 nm/615 nm ratio signal to cAMP concentration. After normalization to treated and untreated controls, the percent effect of signal at each compound concentration was calculated. The plot of percent effect versus the log of compound concentration was fit with a 4-parameter concentration response equation to calculate EC50 values. Compound concentrations tested were 10 000, 3 333, 1 111, 370.4, 123.4, 41.2, 13.7, 4.6, 1.5 and 0.5 nM with 0.25% residual DMSO.

Chain of human BLT1 receptor (Q15722 whole entry): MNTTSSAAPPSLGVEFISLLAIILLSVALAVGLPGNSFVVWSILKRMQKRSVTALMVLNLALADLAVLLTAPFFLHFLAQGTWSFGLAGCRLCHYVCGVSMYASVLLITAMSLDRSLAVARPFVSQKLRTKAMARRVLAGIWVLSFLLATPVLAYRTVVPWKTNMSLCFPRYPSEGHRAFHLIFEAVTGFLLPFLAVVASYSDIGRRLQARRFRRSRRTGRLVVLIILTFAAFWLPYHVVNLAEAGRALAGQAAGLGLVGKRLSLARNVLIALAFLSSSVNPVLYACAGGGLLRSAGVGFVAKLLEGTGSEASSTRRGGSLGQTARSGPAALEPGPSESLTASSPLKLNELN

Row | Compound | EC50
1 | O=C(NS(=O)(=O)C(F)(F)F)c1ccc(F)cc1-c1ccc2c(c1)OC[C@@H](Cc1ccccn1)[C@@H]2O (single isomer, unassigned) [Example 1, 4-Fluoro-2-((3R,4S or 3S,4R)-4-hydroxy-3-(pyridin-2-ylmethyl)chroman-7-yl)-N-((trifluoromethyl)sulfonyl)benzamide] | 650 nM
2 | O=C(NS(=O)(=O)C1CC1)c1ccc(F)cc1-c1ccc2c(c1)OC[C@H](Cc1ccccn1)[C@H]2O (single isomer, unassigned) [Example 16, N-(Cyclopropylsulfonyl)-4-fluoro-2-((3S,4R or 3R,4S)-4-hydroxy-3-(pyridin-2-ylmethyl)chroman-7-yl)benzamide] | 4 nM
3 | O=C(NS(=O)(=O)C1CC1)c1ccc(F)cc1-c1ccc2c(c1)OC[C@@H](Cc1ccccn1)[C@@H]2O (single isomer, unassigned) [Example 15, N-(Cyclopropylsulfonyl)-4-fluoro-2-((3R,4S or 3S,4R)-4-hydroxy-3-(pyridin-2-ylmethyl)chroman-7-yl)benzamide] | 480 nM
4 | O=C(NS(=O)(=O)CC1CC1)c1ccccc1-c1ccc2c(c1)OCC(Cc1ccccn1)C2O (stereo not drawn) [Example 18, N-((Cyclopropylmethyl)sulfonyl)-2-((3,4-trans)-4-hydroxy-3-(pyridin-2-ylmethyl)chroman-7-yl)benzamide] | 23 nM
5 | O=C(NS(=O)(=O)C(F)(F)F)c1ccc(F)cc1-c1ccc2c(c1)OC[C@H](Cc1ccc(-c3ccccc3)cc1)[C@H]2O (racemic) [Example 40, 2-((Rac-trans)-3-([1,1′-Biphenyl]-4-ylmethyl)-4-hydroxychroman-7-yl)-4-fluoro-N-((trifluoromethyl)sulfonyl)benzamide] | 9 nM
6 | CC1(S(=O)(=O)NC(=O)c2ccccc2-c2ccc3c(c2)OC[C@H](Cc2coc(-c4ccccc4)n2)[C@H]3O)CC1 (single isomer, unassigned) [Example 45, 2-((3S,4R or 3R,4S)-4-hydroxy-3-((2-phenyloxazol-4-yl)methy)chroman-7-yl)-N-((1-methylcyclopropyl)sulfonyl)benzamide] | 3 nM
7 | O=C(NS(=O)(=O)C(F)(F)F)c1ccc(F)cc1-c1ccc2c(c1)OC[C@H](Cc1ccccn1)[C@H]2O (single isomer, unassigned) [Example 2, 4-Fluoro-2-((3S,4R or 3R,4S)-4-hydroxy-3-(pyridin-2-ylmethyl)chroman-7-yl)-N-((trifluoromethyl)sulfonyl)benzamide] | 6 nM

Other lines, results leading:

Row | EC50 | Compound
8 | 2040 nM | CC1(S(=O)(=O)NC(=O)c2ccccc2-c2ccc3c(c2)OC[C@@H](Cc2ccccc2)[C@@H]3O)CC1 (single isomer, unassigned) [Example 21, 2-((3R,4S or 3S,4R)-3-Benzyl-4-hydroxychroman-7-yl)-N-((1-methylcyclopropyl)sulfonyl)benzamide]
9 | 15 nM | CC1(S(=O)(=O)NC(=O)c2ccccc2-c2ccc3c(c2)OC[C@H](Cc2ccccc2)[C@H]3O)CC1 (single isomer, unassigned) [Example 22, 2-((3S,4R or 3R,4S)-3-Benzyl-4-hydroxychroman-7-yl)-N-((1-methylcyclopropyl)sulfonyl)benzamide]
10 | 2170 nM | O=C(NS(=O)(=O)C1CC1)c1ccccc1-c1ccc2c(c1)OC[C@@H](Cc1ccccn1)[C@@H]2O (single isomer, unassigned) [Example 5, N-(Cyclopropylsulfonyl)-2-((3R,4S or 3S,4R)-4-hydroxy-3-(pyridin-2-ylmethyl)chroman-7-yl)benzamide]
11 | 556 nM | Cc1nnc(C[C@@H]2COc3cc(-c4ccccc4C(=O)NS(=O)(=O)C(C)(C)C)ccc3[C@H]2O)s1 (racemic) [Example 31, N-(tert-Butylsulfonyl)-2-((rac-trans)-4-hydroxy-3-((5-methyl-1,3,4-thiadiazol-2-yl)methyl)chroman-7-yl)benzamide]
12 | 2820 nM | O=C(NS(=O)(=O)C1CC1)c1ccccc1-c1ccc2c(c1)OC[C@@H](Cc1ccccc1)[C@@H]2O (single isomer, unassigned) [Example 23, 2-((3R,4S or 3S,4R)-3-Benzyl-4-hydroxychroman-7-yl)-N-(cyclopropylsulfonyl)benzamide]
